System: 699152-130-R-J1-PDC complex spheroid viability
Experiment: Anticancer human tumor 699152-130-R-J1-PDC patient-derived pancreatic carcinoma cell line growth inhibition [POLQ]
Conditions: for IC50: curve of first compound; for viability, T/C: stronger effect = lower value
How it was run: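 Complex spheroid viability model combining PDC tumour cells with endothelial (HUVEC) and MSC stromal cells. Novobiocin, ART-558 or RP6685 were tested singly and in combination with standard and investigational anticancer drugs. Each was titrated in half-log steps from near clinical Cmax, or from 10 microM where Cmax was unknown.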

[1] = second compound 0.0316 µM, first compound 0.0316 µM
[2] = second compound 0.0316 µM, first compound 0.1 µM
[3] = second compound 0.0316 µM, first compound 0.316 µM
[4] = second compound 0.0316 µM, first compound 1 µM
[5] = second compound 0.0316 µM, first compound 3.16 µM
[6] = second compound 0.0316 µM, first compound 10 µM
[7] = second compound 0.1 µM, first compound 0.0316 µM
[8] = second compound 0.1 µM, first compound 0.1 µM
[9] = second compound 0.1 µM, first compound 0.316 µM
[10] = second compound 0.1 µM, first compound 1 µM
[11] = second compound 0.1 µM, first compound 3.16 µM
[12] = second compound 0.1 µM, first compound 10 µM
[13] = second compound 0.316 µM, first compound 0.0316 µM
[14] = second compound 0.316 µM, first compound 0.1 µM
[15] = second compound 0.316 µM, first compound 0.316 µM
[16] = second compound 0.316 µM, first compound 1 µM
[17] = second compound 0.316 µM, first compound 3.16 µM
[18] = second compound 0.316 µM, first compound 10 µM
[19] = second compound 1 µM, first compound 0.0316 µM
[20] = second compound 1 µM, first compound 0.1 µM
[21] = second compound 1 µM, first compound 0.316 µM
[22] = second compound 1 µM, first compound 1 µM
[23] = second compound 1 µM, first compound 3.16 µM
[24] = second compound 1 µM, first compound 10 µM
[25] = second compound 3.16 µM, first compound 0.0316 µM
[26] = second compound 3.16 µM, first compound 0.1 µM
[27] = second compound 3.16 µM, first compound 0.316 µM
[28] = second compound 3.16 µM, first compound 1 µM
[29] = second compound 3.16 µM, first compound 3.16 µM
[30] = second compound 3.16 µM, first compound 10 µM
[31] = second compound 10 µM, first compound 0.0316 µM
[32] = second compound 10 µM, first compound 0.1 µM
[33] = second compound 10 µM, first compound 0.316 µM
[34] = second compound 10 µM, first compound 1 µM
[35] = second compound 10 µM, first compound 3.16 µM
[36] = second compound 10 µM, first compound 10 µM
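Note: spheroids exposed to agents for 7 days before viability reading.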
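Throughout, for viability, T/C: percent of DMSO vehicle control viability so 100% = vehicle and 0% = no viable signal.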

C#Cc1c(F)ccc2cc(O)cc(-c3ncc4c(N5CC6CCC(C5)N6)nc(OCC56CCCN5CC(F)C6)nc4c3F)c12 (stereo unspecified) + COC1C(OC(N)=O)C(O)C(Oc2ccc3c(O)c(NC(=O)c4ccc(O)c(CC=C(C)C)c4)c(=O)oc3c2C)OC1(C)C
IC50 (second compound 0.0316 µM): < 31.6 nM | IC50 (second compound 0.1 µM): < 31.6 nM | IC50 (second compound 0.316 µM): < 31.6 nM | IC50 (second compound 1 µM): < 31.6 nM | IC50 (second compound 3.16 µM): < 31.6 nM | IC50 (second compound 10 µM): < 31.6 nM | viability, T/C [1]: 24.1% | viability, T/C [2]: 22.1% | viability, T/C [3]: 15.1% | viability, T/C [4]: 14.3% | viability, T/C [5]: 13.6% | viability, T/C [6]: 14.2% | viability, T/C [7]: 25.4% | viability, T/C [8]: 21.3% | viability, T/C [9]: 17% | viability, T/C [10]: 11.4% | viability, T/C [11]: 12.7% | viability, T/C [12]: 11.7% | viability, T/C [13]: 26.2% | viability, T/C [14]: 18.8% | viability, T/C [15]: 16.5% | viability, T/C [16]: 12.8% | viability, T/C [17]: 13.2% | viability, T/C [18]: 11.3% | viability, T/C [19]: 26.8% | viability, T/C [20]: 22.6% | viability, T/C [21]: 17.7% | viability, T/C [22]: 13.2% | viability, T/C [23]: 11.9% | viability, T/C [24]: 12.4% | viability, T/C [25]: 26.3% | viability, T/C [26]: 19.6% | viability, T/C [27]: 18.8% | viability, T/C [28]: 13.7% | viability, T/C [29]: 12.4% | viability, T/C [30]: 12.2% | viability, T/C [31]: 23.9% | viability, T/C [32]: 22.3% | viability, T/C [33]: 17.2% | viability, T/C [34]: 14.2% | viability, T/C [35]: 13.8% | viability, T/C [36]: 12.7%

O=C(Nc1ccc(O)c(NS(=O)(=O)c2ccc(F)cc2)c1)c1ccc(-c2ccccc2)cc1 + Nc1ccc(C#CCN(C(=O)Cc2ncc(C(F)(F)F)cc2C(F)(F)F)c2ccc(F)cc2)nn1
IC50 (second compound 0.0316 µM): > 10000 nM | IC50 (second compound 0.1 µM): > 10000 nM | IC50 (second compound 0.316 µM): > 10000 nM | IC50 (second compound 1 µM): > 10000 nM | IC50 (second compound 3.16 µM): > 10000 nM | IC50 (second compound 10 µM): > 10000 nM | viability, T/C [1]: 101% | viability, T/C [2]: 95.9% | viability, T/C [3]: 98.2% | viability, T/C [4]: 111% | viability, T/C [5]: 100% | viability, T/C [6]: 62.8% | viability, T/C [7]: 89.5% | viability, T/C [8]: 102% | viability, T/C [9]: 95.2% | viability, T/C [10]: 103% | viability, T/C [11]: 102% | viability, T/C [12]: 59.4% | viability, T/C [13]: 116% | viability, T/C [14]: 108% | viability, T/C [15]: 114% | viability, T/C [16]: 101% | viability, T/C [17]: 110% | viability, T/C [18]: 68.8% | viability, T/C [19]: 108% | viability, T/C [20]: 103% | viability, T/C [21]: 104% | viability, T/C [22]: 102% | viability, T/C [23]: 102% | viability, T/C [24]: 64.7% | viability, T/C [25]: 104% | viability, T/C [26]: 103% | viability, T/C [27]: 103% | viability, T/C [28]: 107% | viability, T/C [29]: 112% | viability, T/C [30]: 67.9% | viability, T/C [31]: 110% | viability, T/C [32]: 122% | viability, T/C [33]: 114% | viability, T/C [34]: 103% | viability, T/C [35]: 109% | viability, T/C [36]: 59.3%

CC[C@@]1(O)C(=O)OCc2c1cc1n(c2=O)Cc2cc3c(CN(C)C)c(O)ccc3nc2-1 + COC1C(OC(N)=O)C(O)C(Oc2ccc3c(O)c(NC(=O)c4ccc(O)c(CC=C(C)C)c4)c(=O)oc3c2C)OC1(C)C
IC50 (second compound 0.0316 µM): > 100 nM | IC50 (second compound 0.1 µM): > 100 nM | IC50 (second compound 0.316 µM): > 100 nM | IC50 (second compound 1 µM): 95 nM | IC50 (second compound 3.16 µM): > 100 nM | IC50 (second compound 10 µM): > 100 nM | viability, T/C (second compound 0.0316 µM, first compound 0.000316 µM): 116% | viability, T/C (second compound 0.0316 µM, first compound 0.001 µM): 101% | viability, T/C (second compound 0.0316 µM, first compound 0.00316 µM): 99.3% | viability, T/C (second compound 0.0316 µM, first compound 0.01 µM): 93.1% | viability, T/C [1]: 79.6% | viability, T/C [2]: 48.4% | viability, T/C (second compound 0.1 µM, first compound 0.000316 µM): 111% | viability, T/C (second compound 0.1 µM, first compound 0.001 µM): 99.6% | viability, T/C (second compound 0.1 µM, first compound 0.00316 µM): 90.4% | viability, T/C (second compound 0.1 µM, first compound 0.01 µM): 93.2% | viability, T/C [7]: 69% | viability, T/C [8]: 60.2% | viability, T/C (second compound 0.316 µM, first compound 0.000316 µM): 112% | viability, T/C (second compound 0.316 µM, first compound 0.001 µM): 94.3% | viability, T/C (second compound 0.316 µM, first compound 0.00316 µM): 84.9% | viability, T/C (second compound 0.316 µM, first compound 0.01 µM): 94% | viability, T/C [13]: 77.9% | viability, T/C [14]: 61.6% | viability, T/C (second compound 1 µM, first compound 0.000316 µM): 97.5% | viability, T/C (second compound 1 µM, first compound 0.001 µM): 92.8% | viability, T/C (second compound 1 µM, first compound 0.00316 µM): 99% | viability, T/C (second compound 1 µM, first compound 0.01 µM): 92.2% | viability, T/C [19]: 83.2% | viability, T/C [20]: 48.3% | viability, T/C (second compound 3.16 µM, first compound 0.000316 µM): 92.5% | viability, T/C (second compound 3.16 µM, first compound 0.001 µM): 106% | viability, T/C (second compound 3.16 µM, first compound 0.00316 µM): 83% | viability, T/C (second compound 3.16 µM, first compound 0.01 µM): 96.4% | viability, T/C [25]: 80% | viability, T/C [26]: 58% | viability, T/C (second compound 10 µM, first compound 0.000316 µM): 103% | viability, T/C (second compound 10 µM, first compound 0.001 µM): 89.4% | viability, T/C (second compound 10 µM, first compound 0.00316 µM): 98.8% | viability, T/C (second compound 10 µM, first compound 0.01 µM): 95.4% | viability, T/C [31]: 69.7% | viability, T/C [32]: 60.9%
